Assay results: ChEMBL document CHEMBL5729391, “Acyclic antivirals” (2022)

Test: Inhibition of HBV: Determination of 50% inhibitory concentration (EC50) of compounds in […] cells were performed by the following procedure. On the first day, cells were seeded at 30,000 cells per 100 μL well in Biocoat collage coated flat bottom 96 well plates. On the following day, test compounds were solubilized in 100% DMSO to 100× the desired final testing concentration. Each compound was then serially diluted (1:3) up to 9 different concentrations. Compounds in 100% DMSO are reduced to 10% DMSO by diluting 1:10 in assay media. The final DMSO concentration was 1%. The cells were incubated at 37° C. for 72 hours.The antiviral activity was measured using a quantitative kinetic reverse transcription-polymerase chain reaction (RT-PCR) assay directly measuring the HBV viral copy numbers from the supernatant of HepG2.117 cells. EC50 was defined as the concentration of compound at which the HBV viral copy numbers from the HepG2.117 cells was reduced 50% relative to its level in the absence of compound. HBV viral copy numbers are normalized to the level observed in the absence of inhibitor, which was defined as 100%.
Type: cell-based

Row | SMILES | EC50
1 | Nc1ncnn2c(C[C@H](CF)OCP(=O)(O)O)cnc12 | < 1000 nM
2 | CC(C)OC(=O)[C@H](C)NP(=O)(CO[C@H](C)Cc1cnn2c(N)ncnc12)Oc1ccccc1 (some centres undefined) | < 1000 nM
3 | Nc1ncnc2c(C[C@H](OCP(=O)(O)O)C(F)F)cnn12 | in the range around 5500 nM
4 | CC(C)OC(=O)OCOP(=O)(CO[C@H](C)Cc1ccc2c(N)ncnn12)OCOC(=O)OC(C)C | < 1000 nM
5 | CC(C)OC(=O)[C@H](C)NP(=O)(CO[C@H](CF)Cc1cnn2c(N)ncnc12)Oc1ccccc1 (some centres undefined) | < 1000 nM
6 | CC(C)OC(=O)OCOP(=O)(COC(C)Cc1ccc2c(N)nc(N)nn12)OCOC(=O)OC(C)C (centres undefined) | in the range around 5500 nM
7 | CC(C)OC(=O)[C@H](C)NP(=O)(COC(C)Cc1cnc2c(=O)[nH]c(N)nn12)Oc1ccccc1 (some centres undefined) | < 1000 nM
8 | CC(C)OC(=O)[C@H](C)NP(=O)(CO[C@H](C)Cc1cnc2c(N)ncnn12)Oc1ccccc1 (some centres undefined) | < 1000 nM
9 | CC(C)OC(=O)OCOP(=O)(CO[C@H](C)Cc1cnn2c(N)ncnc12)OCOC(=O)OC(C)C | > 100000 nM
10 | CC(C)OC(=O)OCOP(=O)(COC(CF)Cc1cnn2c(N)ncnc12)OCOC(=O)OC(C)C (centres undefined) | < 1000 nM
11 | Nc1ncnc2c(C[C@@H](OCP(=O)(O)O)C(F)F)cnn12 | in the range around 5500 nM
12 | CC(Cc1cnc2c(=O)[nH]c(N)nn12)OCP(=O)(O)O (centres undefined) | < 1000 nM
13 | CC(C)OC(=O)[C@H](C)NP(=O)(CO[C@@H](CF)Cc1cnn2c(N)ncnc12)Oc1ccccc1 (some centres undefined) | < 1000 nM
14 | CC(C)OC(=O)OCOP(=O)(CO[C@@H](C)Cc1cnn2c(N)ncnc12)OCOC(=O)OC(C)C | < 1000 nM
15 | CC(C)OC(=O)OCOP(=O)(COC(C)Cc1ccc2c(=O)[nH]c(N)nn12)OCOC(=O)OC(C)C (centres undefined) | < 1000 nM
16 | CC(C)OC(=O)OCOP(=O)(COCCc1ccc2c(N)ncnn12)OCOC(=O)OC(C)C | in the range around 5500 nM
17 | Nc1ncnc2c(CC3(OCP(=O)(O)O)CC3)cnn12 | in the range around 55000 nM
18 | Nc1ncnn2c(C[C@@H](CF)OCP(=O)(O)O)cnc12 | in the range around 55000 nM
19 | CC(C)OC(=O)OCOP(=O)(CO[C@H](C)Cc1cnc2c(N)ncnn12)OCOC(=O)OC(C)C | < 1000 nM
